The target of one assay is T1, Alpha 1A (Homo sapiens, UniProt P35348).
T1 construct: expressed in transfected cells; host or cells: NIH-3T3
T1 sequence (P35348 1-466): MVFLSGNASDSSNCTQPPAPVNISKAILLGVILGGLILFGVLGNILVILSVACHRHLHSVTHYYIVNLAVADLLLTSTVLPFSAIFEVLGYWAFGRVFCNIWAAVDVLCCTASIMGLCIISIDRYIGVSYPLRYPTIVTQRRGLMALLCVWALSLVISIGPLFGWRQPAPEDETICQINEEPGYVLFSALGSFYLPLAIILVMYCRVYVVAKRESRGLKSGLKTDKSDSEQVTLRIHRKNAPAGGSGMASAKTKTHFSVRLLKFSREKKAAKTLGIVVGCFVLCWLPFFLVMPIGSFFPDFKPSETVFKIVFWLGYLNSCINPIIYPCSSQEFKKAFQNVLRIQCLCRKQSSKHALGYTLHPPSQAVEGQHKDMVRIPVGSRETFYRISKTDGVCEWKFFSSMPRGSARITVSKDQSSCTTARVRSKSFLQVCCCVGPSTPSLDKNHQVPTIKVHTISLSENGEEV
Nature of the assay: RSAT assay, Alpha 1A. In kind it is cell-based. To be noted: for Alpha 1A (IA) intrinsic activity: ratio of maximal effect of drug to maximal effect of standard full agonist. Here is the method: (§1) The RSAT assay measures a receptor-mediated loss of contact inhibition that results in selective proliferation of receptor-containing cells in a mixed population of confluent cells. The increase in cell number is assessed with an appropriate transfected marker gene such as […]-galactosidase, the activity of which can be easily measured in a 96-well format. Receptors that activate the G protein, Gq, elicit this response. Alpha2 receptors, which normally couple to Gi, activate the RSAT response when coexpressed with a hybrid Gq protein that has a Gi receptor recognition domain, called Gq/i5.
NIH-3T3 cells are plated at a density of 2×10^6 cells in 15 cm dishes and maintained in Dulbecco's modified Eagle's medium supplemented with 10% calf serum. One day later, cells are cotransfected by calcium phosphate precipitation with mammalian expression plasmids encoding p-SV-β-galactosidase (5-10 μg), receptor (1-2 μg) and G protein (1-2 μg). 40 μg salmon sperm DNA may also be included in the transfection mixture. Fresh media is added on the following day and 1-2 days later, cells are harvested and frozen in 50 assay aliquots. Cells are thawed and 100 μl added to 100 μl aliquots of various concentrations of drugs in triplicate in 96-well dishes. Incubations continue 72-96 hr at 37° C. After washing with phosphate-buffered saline, β-galactosidase enzyme activity is determined by adding 200 μl of the chromogenic substrate (consisting of 3.5 mM o-nitrophenyl-β-D-galactopyranoside and 0.5% nonidet P-40 in phosphate buffered saline), incubating overnight at 30° C. and measuring optical density at 420 nm. The absorbance is a measure of enzyme activity, which depends on cell number and reflects a receptor-mediated cell proliferation. The efficacy or intrinsic activity is calculated as a ratio of the maximal effect of the drug to the maximal effect of a standard full agonist for each receptor subtype. Brimonidine, also called UK14304, the chemical structure of which is shown below, is used as the standard agonist for the alpha2A, alpha2B and alpha2C receptors. The EC50 is the concentration at which the drug effect is half of its maximal effect.
EC50 values are nanomolar. NA stands for “not active” at concentrations less than 10 micromolar. IA stands for “intrinsic activity.”

The next assay deals with T2, Alpha 2B (Homo sapiens, UniProt P18089).
T2 construct: expressed in transfected cells; host or cells: NIH-3T3
T2 sequence (P18089 1-450): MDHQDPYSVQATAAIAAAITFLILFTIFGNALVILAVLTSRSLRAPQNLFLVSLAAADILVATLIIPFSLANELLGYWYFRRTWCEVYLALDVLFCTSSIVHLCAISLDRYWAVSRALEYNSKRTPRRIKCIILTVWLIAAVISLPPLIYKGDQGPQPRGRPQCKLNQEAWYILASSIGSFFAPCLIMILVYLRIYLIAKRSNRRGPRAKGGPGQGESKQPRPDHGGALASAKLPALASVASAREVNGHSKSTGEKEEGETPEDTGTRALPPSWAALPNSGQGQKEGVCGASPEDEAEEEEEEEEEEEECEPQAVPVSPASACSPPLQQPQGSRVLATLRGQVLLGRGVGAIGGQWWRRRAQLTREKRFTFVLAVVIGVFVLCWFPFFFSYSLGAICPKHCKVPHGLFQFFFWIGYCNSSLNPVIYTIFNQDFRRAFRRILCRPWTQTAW
Nature of the assay: RSAT assay, Alpha 2B. In kind it is cell-based. Here is the method: as §1
NIH-3T3 cells are plated at a density of 2×10^6 cells in 15 cm dishes and maintained in Dulbecco's modified Eagle's medium supplemented with 10% calf serum. […] After washing with phosphate-buffered saline, β-galactosidase enzyme activity is determined by adding 200 μl of the chromogenic substrate (consisting of 3.5 mM o-nitrophenyl-β-D-galactopyranoside and 0.5% nonidet P-40 in phosphate buffered saline), incubating overnight at 30° C. and measuring optical density at 420 nm. The absorbance is a measure of enzyme activity, which depends on cell number and reflects a receptor-mediated cell proliferation. The efficacy or intrinsic activity is calculated as a ratio of the maximal effect of the drug to the maximal effect of a standard full agonist for each receptor subtype. […]

The term EC50 denotes the midpoint of the concentration-response curve. A low value points to greater potency. `CNc1ccc(Cc2nc[nH]c2C)c2ccccc12` [Compound 7, N-methyl-4-((5-methyl-1H-imidazol-4-yl)methyl)naphthalen-1-amine]: at Alpha 1A, a half-maximal effect (EC50) was put at 13 nM and the “Alpha 1A (IA) intrinsic activity” value is reported as 1.2.
On to `Cc1[nH]cnc1Cc1ccc(N)c2ccccc12` [Compound 8, 4-((5-methyl-1H-imidazol-4-yl)methyl)naphthalen-1-amine], for which, on Alpha 1A, the half-maximal effective concentration (EC50) came to 55 nM and the “Alpha 1A (IA) intrinsic activity” value stood at 1.01. In addition, at Alpha 2B (RSAT, NIH-3T3 cells coexpressing Gq/i5, NA = not active at concentrations less than 10 micromolar), the EC50 was 146 nM. Further, at Alpha 2B (ratio of maximal effect of drug to maximal effect of standard full agonist brimonidine), the “Alpha 2B (IA) intrinsic activity” value amounted to 0.46.

(Values after patent US8013169B2, “Naphthylmethylimidizoles as therapeutic agents” (Allergan, Inc, priority 2007, dated 2011).)
